Reference: US20060154243A1 (priority 2003, published 2006)

Legend:
serum 37 (individual 37) = type: binding, human
[1] = test system: rabbit serum obtained by immunizing with SARS-CoV strain Frankfurt 1; type: binding
serum London = type: binding, human
serum SARS-yellow = type: binding, human
[2] = test system: serum 1a (individual 1, early serum); type: binding, human
serum 6 (individual 6) = type: binding, human
serum 2 (individual 2) = type: binding, human
serum SARS-green = type: binding, human
[3] = test system: control serum LUMC (pooled serum of ten healthy hospital workers); type: binding, human
[4] = test system: control serum Blood-bank (commercial negative donor pooled serum); type: binding, human
serum 62 (individual 62) = type: binding, human
[5] = test system: serum 1b (individual 1, late serum); type: binding, human
[6] = test system: sera SARS-green, SARS-yellow, 1a, 1b, 2, 6, 37, 62 and London; type: binding, human

Sequence | Binding of serum 37 to linear peptides of Orf14 of SARS-CoV TOR2 (serum 37 (individual 37)) | Recognition by the rabbit serum [1] | Binding of serum London to linear peptides of Orf14 of SARS-CoV TOR2 (serum London) | Binding of serum SARS-yellow to linear peptides of Orf14 of SARS-CoV TOR2 (serum SARS-yellow) | Binding of serum 1a to linear peptides of Orf14 of SARS-CoV TOR2 [2] | Binding of serum 6 to linear peptides of Orf14 of SARS-CoV TOR2 (serum 6 (individual 6)) | Binding of serum 2 to linear peptides of Orf14 of SARS-CoV TOR2 (serum 2 (individual 2)) | Binding of serum SARS-green to linear peptides of Orf14 of SARS-CoV TOR2 (serum SARS-green) | Control serum LUMC linear peptides [3] | Control serum LUMC looped peptides [3] | Control Serum Blood-Bank Looped peptides [4] | Control serum Blood-bank linear peptides [4] | Binding of serum 62 to linear peptides of Orf14 of SARS-CoV TOR2 (serum 62 (individual 62)) | Binding of serum 1b to linear peptides of Orf14 of SARS-CoV TOR2 [5] | Recognition of the peptide by sera of individuals infected by SARS-CoV, form recognized [6]
AAVKPLLAPHHVVAV | 0.9 | recognized by the rabbit serum | 0.8 | 0.8 | 0.8 | 0.7 | 1.0 | 0.6 | 1.0 | 0.7 | 0.6 | 1.0 | 0.9 | 0.6 | 
ASTQREAEAAVKPLL | 0.5 |  | 0.4 | 0.4 | 0.4 | 0.5 | 0.4 | 0.4 | 0.4 | 0.8 | 0.9 | 0.5 | 0.4 | 0.3 | recognized in looped form
AVKPLLAPHHVVAVI | 0.7 | recognized by the rabbit serum | 0.5 | 0.6 | 0.6 | 0.5 | 0.5 | 0.3 | 0.6 | 0.7 | 0.7 | 0.7 | 0.5 | 0.4 | 
CQKASTQREAEAAVK | 0.3 |  | 0.2 | 0.1 | 0.3 | 0.2 | 0.3 | 0.0 | 0.2 | 0.5 | 0.7 | 0.2 | 0.2 | 0.2 | recognized in looped form
CYNFLKEQHCQKAST | 0.6 |  | 0.7 | 0.1 | 0.5 | 0.5 | 0.5 | 0.4 | 0.3 | 0.5 | 0.6 | 0.4 | 0.4 | 0.3 | recognized in looped form
EAAVKPLLAPHHVVA | 0.7 | recognized by the rabbit serum | 0.8 | 0.6 | 0.6 | 0.5 | 0.7 | 0.6 | 0.8 | 0.7 | 0.8 | 0.6 | 0.6 | 0.5 | 
REAEAAVKPLLAPHH | 0.5 |  | 0.4 | 0.2 | 0.5 | 0.3 | 0.4 | 0.1 | 0.3 | 0.6 | 0.7 | 0.2 | 0.3 | 0.3 | 
TQREAEAAVKPLLAP | 0.4 |  | 0.4 | 0.2 | 0.4 | 0.4 | 0.4 | 0.3 | 0.4 | 0.7 | 0.8 | 0.4 | 0.3 | 0.2 | 
VAVIQEIQLLAAVGE | 0.5 |  | 0.3 | 0.2 | 0.5 | 0.4 | 0.3 | 0.3 | 0.3 | 0.6 | 0.6 | 0.3 | 0.3 | 0.4 | 
VGEILLLEWLAEVVK | 0.6 |  | 0.5 | 0.4 | 0.5 | 0.5 | 0.4 | 0.2 | 0.6 | 0.8 | 0.7 | 0.5 | 0.4 | 0.4 | 
VIQEIQLLAAVGEIL | 0.6 |  | 0.4 | 0.3 | 0.5 | 0.3 | 0.4 | 0.5 | 0.6 | 0.9 | 0.5 | 0.4 | 0.4 | 0.4 | 
VKPLLAPHHVVAVIQ | 0.7 | recognized by the rabbit serum | 0.6 | 0.4 | 0.6 | 0.5 | 0.6 | 0.3 | 0.6 | 0.6 | 0.7 | 0.7 | 0.5 | 0.5 | 
VVAVIQEIQLLAAVG | 0.6 |  | 1.0 | 0.4 | 0.8 | 1.3 | 0.7 | 0.5 | 1.1 | 0.4 | 0.5 | 1.1 | 0.8 | 0.7 | 
